We go through one molecule from publication PMC5321639, “Design and pharmacodynamics of recombinant NZ2114 histidine mutants with improved activity against methicillin-resistant Staphylococcus aureus” (AMB Express, 2017).

Where a SMILES comes first, the peptide text is derived from it. Bridges are numbered along the chain shown (N, C = ends).

In series [1] the test system is mice red blood cells. Briefly: Hemolytic assay. It counts as cell-based. The following applies: 0.23 to 7.27 μM (1–32 μg/ml), 37 °C 1 h. The method, then:
The mice blood cells were washed three times in stroke-physiological saline solution (0.9% NaCl) and centrifuged at 4 °C, 2000 rpm for 5 min. A 50-μl cell was diluted to 8% (v/v), added into 96-well plates, and mixed with 50-μl peptide to the final concentrations ranging from […]. The plates were incubated at 37 °C for 1 h, and centrifuged at 4 °C, 5000 rpm for 5 min. The absorbance of supernatants was measured at 540 nm, and 0 and 100% hemolysis was measured by 0.9% NaCl and 0.1% Triton X-100, respectively. The hemolysis percentages were calculated by the following equation: [(Abs540 nm in H1, H2, H3 solution − Abs540 nm in 0.9% NaCl)/(Abs540 nm in 0.1% Triton X-100 − Abs540 nm in 0.9% NaCl)] ×100% (Jiao et al. [2015]).

Series [2] deals with S. aureus ATCC43300. Briefly: microbe, parasite or virus in culture. It counts as cell-based, Staphylococcus aureus. The following applies: for MICc (MIC of the most effective combination): checkerboard; for FIC: MICc/MICa. Put shortly: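 Checkerboard broth microdilution against S. aureus ATCC43300: peptides H1–H3 combined with vancomycin, ampicillin, rifampicin or ciprofloxacin, each twofold-diluted from 1/16 to 8× MIC. FICI = sum of each agent's MIC in combination over its MIC alone. FICI ≤0.5 synergy, >0.5–1 additive, >1–4 indifferent, >4 antagonism.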

Where [3] appears, read: in combination with ciprofloxacin.

As to `CC[C@H](C)[C@@H]1NC(=O)[C@H](CO)NC(=O)[C@H](CCCCN)NC(=O)[C@@H]2CSSC[C@@H](C(=O)N[C@@H](Cc3ccc(O)cc3)C(=O)O)NC(=O)[C@H](CCCCN)NC(=O)[C@@H]3CSSC[C@H](NC(=O)[C@H](CCCNC(=N)N)NC(=O)[C@H](CC(C)C)NC(=O)[C@H](CC(=O)O)NC(=O)[C@H](CC(=O)O)NC(=O)[C@H](CCC(=O)O)NC(=O)[C@H](CC(N)=O)NC(=O)[C@H](Cc4c[nH]c5ccccc45)NC(=O)[C@@H]4CCCN4C(=O)CNC(=O)[C@H](CC(N)=O)NC(=O)[C@@H](NC(=O)CNC(=O)[C@H](Cc4ccccc4)NC(=O)CN)CSSC[C@H](NC(=O)[C@H](Cc4ccc(O)cc4)NC(=O)CNC(=O)CNC(=O)[C@H](CCCCN)NC(=O)[C@H](Cc4ccc(O)cc4)NC(=O)CNC(=O)[C@H](CCCCN)NC1=O)C(=O)N[C@@H](C)C(=O)N[C@@H](CCCCN)C(=O)NCC(=O)NCC(=O)N[C@@H](Cc1ccccc1)C(=O)N[C@@H](C(C)C)C(=O)N3)C(=O)N[C@@H](CCCNC(=N)N)C(=O)N[C@@H](CC(N)=O)C(=O)N[C@@H](Cc1c[nH]cn1)C(=O)N2` [H2] (H-GFGCNGPWNEDDLRCRNHCKSIKGYKGGYCAKGGFVCKCY-OH; disulfide 4-30, 15-37, 19-39 (inferred); N-terminus and C-terminus assumed), in series [1], the hemolytic activity entry was “little or no hemolytic activity”. Further, the “MICc (MIC of the most effective combination)” value in series [2] (in combination with ampicillin) came to 0.113 µM; in series [2] (setting [3]) it was 0.227 µM; in series [2] (in combination with rifampicin) it was 0.056 µM; in series [2] (in combination with vancomycin) it was 0.113 µM. In addition, the MIC in series [2] (drug alone, read-out: MICa (MIC of drug alone)) was found to be 0.113 µM. The FIC was 1 in series [2] (in combination with ampicillin), 2 in series [2] (setting [3]), 0.5 in series [2] (in combination with rifampicin) and 1 in series [2] (in combination with vancomycin).
